The NIST ThermoML archive (doi:10.1021/je049721u)

Experiment: mn = molality of the nth substance listed, in mol/kg
Settings: 101.3 kPa, Liquid; for speed of sound: Pulse-echo method

[Ni+2].[O-][Cl+3]([O-])([O-])[O-].[O-][Cl+3]([O-])([O-])[O-] [nickel perchlorate] + CN(C)C=O
Settings	mass density, 283.15 K [kg/m3]	mass density, 293.15 K [kg/m3]	mass density, 298.15 K [kg/m3]	mass density, 303.15 K [kg/m3]	mass density, 313.15 K [kg/m3]	mass density, 323.15 K [kg/m3]	mass density, 333.15 K [kg/m3]	speed of sound, 298.15 K [m/s]
m1 = 0.027	–	–	–	–	–	–	–	1459.6
m1 = 0.02709	963.872	954.383	949.635	944.864	935.312	925.725	916.07	–
m1 = 0.0405	966.705	957.208	952.461	947.7	938.159	928.568	918.935	1460.7
m1 = 0.054	969.549	960.073	955.329	950.578	941.045	931.471	921.848	1461.7
m1 = 0.0681	972.55	963.083	958.342	953.59	944.072	934.511	924.9	1462.9
m1 = 0.08156	975.396	965.94	961.2	956.46	946.947	937.4	927.809	1463.9
m1 = 0.1073	980.845	971.397	966.666	961.935	952.463	942.934	933.366	1466
m1 = 0.1332	986.418	976.985	972.262	967.533	958.059	948.552	939.005	1467.8
m1 = 0.1592	992.026	982.603	977.888	973.17	963.711	954.224	944.695	1470
m1 = 0.1864	997.967	988.557	983.849	979.136	969.697	960.23	950.732	1471.8
m1 = 0.2118	1003.54	994.141	989.44	984.736	975.313	965.882	956.405	1473.6
m1 = 0.2613	1014.55	1005.16	1000.47	995.784	986.394	976.988	967.56	1477.5

[O-][Cl+3]([O-])([O-])[O-].[O-][Cl+3]([O-])([O-])[O-].[Zn+2] [zinc perchlorate] + CN(C)C=O
Settings	mass density, 283.15 K [kg/m3]	mass density, 293.15 K [kg/m3]	mass density, 298.15 K [kg/m3]	mass density, 303.15 K [kg/m3]	mass density, 313.15 K [kg/m3]	mass density, 323.15 K [kg/m3]	mass density, 333.15 K [kg/m3]	speed of sound, 298.15 K [m/s]
m1 = 0.03554	965.795	956.309	951.555	946.8	937.255	927.66	918.015	1459.9
m1 = 0.04966	968.825	959.347	954.6	949.85	940.315	930.737	921.108	–
m1 = 0.05952	970.955	961.484	956.74	951.99	942.46	932.889	923.268	1461.7
m1 = 0.06946	973.095	963.626	958.885	954.139	944.619	935.058	925.449	1462.5
m1 = 0.1039	980.554	971.105	966.376	961.642	952.143	942.607	933.036	1465
m1 = 0.1369	987.781	978.348	973.626	968.9	959.426	949.918	940.371	1467.5
m1 = 0.17	995.118	985.7	980.987	976.267	966.813	957.333	947.816	1469.6
m1 = 0.2038	1002.65	993.242	988.537	983.828	974.394	964.934	955.438	1472.1
m1 = 0.2374	1010.26	1000.87	996.17	991.474	982.063	972.635	963.178	1474.7
m1 = 0.2701	1017.77	1008.39	1003.7	999.008	989.616	980.208	970.777	1477.2
m1 = 0.3002	1024.72	1015.35	1010.66	1005.98	996.605	987.212	977.794	1479.7
m1 = 0.3314	1032.04	1022.68	1018.01	1013.33	1003.97	994.605	985.215	1482.1
